Measurements reported in patent US20050032750A1, “Treating androgen deficiency in female (ADIF)-associated conditions with SARMS” (priority 2003, published 2005).

Legend:
[1] = tested on: ovariectomized (OVX) rat model of postmenopausal bone loss; assay: Femoral pQCT analysis of mid-shaft cortical content; format: in vivo; details: 120 days
Protocol: (§1) One hundred twenty female Sprague-Dawley rats were purchased from Harlan (Indiapolis, Ind.). The animals were housed three per cage and were allowed free access to tap water and commercial rat chow (Harlan Teklad 22/5 rodent diet—8640). During the course of the study, the animals were maintained on a 12 hr light:dark cycle. This study was reviewed and approved by the Institutional Laboratory Care and Use Committee of The Ohio State University. […] Dosing solutions were prepared daily by dissolving drug in dimethyl sulfoxide (DMSO) and diluting in polyethylene glycol 300 (PEG 300). All doses were administered for 120 days via daily subcutaneous injections in a volume of 0.20 ml.
(§2) The right femurs from groups 5, 6, 7, 9, 10, and 12 were sent to Skeletech, Inc. (Bothell, Wash.) for pQCT analysis and biomechanical testing. The femur was subject to pQCT scan using a Stratec XCT RM and associated software (Stratec Medizintechnik GmbH, Pforzheim, Germany. Software version 5.40 C). The femur was scanned at the mid-shaft. The position was verified using scout views and scan results from one 0.5 mm slice perpendicular to the long axis of the femur. Cortical bone mineral content was analyzed. After pQCT analysis, the de-fleshed whole femur was used in the three point bending test. The femur was placed on the lower supports of a three point bending fixture with anterior side facing downward in an Instron Mechanical Testing Machine (Instron 4465 retrofitted to 5500). The upper loading device was aligned to the center of the femoral shaft. The load was applied at a constant displacement rate of 6 mm/min until the femur broke. The location of maximal load was selected manually and values were calculated by machine's software (Merlin II, Instron). Maximum load was measured directly by the mechanical testing machine. The length between two supports was set to 14mm.
(§3) The results were analyzed using Tukey's honestly significant difference method in a one-way analysis of variance and expressed as mean ±S.E.M. Significance was reported when P<0.05. SPSS 11.5.0 (Chicago, Ill.) was used to analyze the results.

[2] = tested on: ovariectomized (OVX) rat model of postmenopausal bone loss; assay: Ex vivo DEXA analysis of L2-L4 vertebrae BMD; format: in vivo; details: 120 days
Protocol: as §1
Immediately following the whole body DEXA scan on day 120, groups 1-11 were sacrificed, and the lumbar vertebrae, femurs, and tibia were excised and cleared of soft tissue. Group 12 was sacrificed at day 210. The excised bones were scanned through a 3 in deep room temperature water bath, to simulate soft tissue and prevent beam-hardening effects. The L2-L4 vertebrae were selected as a region of interest and analyzed for BMD by DEXA.
as §3

[3] = tested on: ovariectomized (OVX) rat model of postmenopausal bone loss; assay: Femoral three point bending test (maximum load); format: in vivo; details: OVX rats, 120 days
Protocol: as §1, §2
The results were analyzed using Tukey's honestly significant difference method in a one-way analysis of variance and expressed as mean ±S.E.M. Significance was reported when P<0.05. […]

[4] = tested on: ovariectomized female rats; assay: Bone mineral content by whole body DEXA after ovariectomy (Example 2); format: in vivo, rat; details: OVX female rats, 30 day treatment period
[5] = tested on: ovariectomized (OVX) rat model of postmenopausal bone loss; assay: Whole body DEXA analysis (BMD, percent fat mass, body weight) in OVX rat model; format: in vivo; details: for change in whole body BMD between day 0 and day 120: 120 days; for body weight gain: day 0 to 120
Protocol: as §1
Total body bone mineral density (BMD), percent fat mass (FM), and body weight (BW) were determined by dual energy x-ray absorptiometry (DEXA) (GE, Lunar Prodigy™) using the small animal software (Lunar enCORE, version 6.60.041) on days 0 and 120. Total body data was obtained by selecting an area encompassing the entire animal as the region of interest during data processing. For scanning, the animals were anesthetized with ketariine:xylazine (87:13 mg/kg).
as §3

[6] = tested on: myosin heavy chain (MHC) IIb mRNA; assay: Myosin heavy chain (MHC) IIb mRNA expression in masseter muscle by RT-PCR; format: in vivo, rat; details: intact female rats, untreated control = 100%
Excerpt: MHC is the predominant protein in skeletal muscle encoded by a multigene family expressed in a tissue-specific and developmentally regulated manner. In steady state, MRNA expression usually parallels the pattern of MHC protein expression. Because transcription of MHC MRNA occurs in advance of MHC protein translation, and the increased sensitivity of RT-PCR compared to western blotting, rapid changes in mRNA expression can be detected and used to analyze the subtle dynamic effects of muscle anabolism.
The masseter muscle dissected from untreated intact female rats was set as the control level (representing 100%) of MHC IIb expression (FIG. 1A). Intact female rats treated with androgens were evaluated against the untreated controls for the effect of treatment on MHC IIb from masseter.

[7] = tested on: castrated male rats; assay: Androgenic and anabolic effects in castrated male rats; format: in vivo, rat

CC(=O)Nc1ccc(OC[C@](C)(O)C(=O)Nc2ccc([N+](=O)[O-])c(C(F)(F)F)c2)cc1 [Compound VI, S-3-(4-acetylamino-phenoxy)-2-hydroxy-2-methyl-N-(4-nitro-3-trifluoromethyl-phenyl)-propionamide]
Cortical Content (CC) of mid-shaft femur ([1]; OVX rats, 1.0 mg/day): completely prevent the loss in CC
Cortical Content (CC) of mid-shaft femur ([1]; OVX rats, 3.0 mg/day): increase the CC in OVX animals above that of intact animals
Cortical Content (CC) of mid-shaft femur ([1]; intact rats, 1 mg/day): not different from intact controls
L2-L4 BMD ([2]; OVX rats, 0.5 and 3.0 mg/kg dose groups): significantly higher BMD than the OVX control group
L2-L4 BMD ([2]; OVX rats, greater than 0.3 mg/day): not significantly different from intact controls
femur biomechanical strength (maximum load) ([3]; 1.0 mg/day): prevent the loss of bone strength
femur biomechanical strength (maximum load) ([3]; 3.0 mg/day): increase in maximum load
bone mineral content compared with intact control or placebo-treated groups [4]: maintained and improved the bone mineral content
change in whole body BMD between day 0 and day 120 ([5]; OVX rats, 0.1 mg/day sc): not significantly different from OVX controls
percent body fat at day 120 ([5]; OVX rats, 3.0 mg/day): not different from intact controls
body weight gain ([5]; OVX rats, 3.0 mg/day): gained more weight than the other groups
percent fat mass at day 120 ([5]; OVX rats, 0.1-3.0 mg/day): dose dependent decrease in percent fat mass
body weight gain ([5]; OVX rats, 0.1-3.0 mg/day): dose-dependent trend in body weight gain
change in whole body BMD between day 0 and day 120 ([5]; OVX rats, doses greater than 0.1 mg/day sc): prevent the loss of whole body BMD
mean percent fat mass at day 120 ([5]; intact rats, 1 mg/day): lower in intact Compound VI treated animals than intact controls
transcription of MHC type IIb, % of untreated control [6]: 137%
prostate restored, % of intact animals [7]: 34%
seminal vesicles restored, % of intact animals [7]: 28%

C[C@]12CCC(=O)C[C@@H]1CC[C@@H]1[C@@H]2CC[C@]2(C)[C@@H](O)CC[C@@H]12 [DHT, dihydrotestosterone, reference compound]
Cortical Content (CC) of mid-shaft femur ([1]; OVX rats, DHT 1 mg/day): partially prevented the loss in CC, these results were not significant
L2-L4 BMD ([2]; OVX rats, DHT 1 mg/day): only able to partially maintain the L2-L4 BMD
L2-L4 BMD ([2]; intact rats, DHT 1 mg/day): caused a reduction in L2-L4 BMD
femur biomechanical strength (maximum load) ([3]; DHT 1 mg/day): prevent the loss in bone strength
change in whole body BMD between day 0 and day 120 ([5]; OVX rats, DHT 1 mg/day sc): not significantly different from OVX controls
change in whole body BMD between day 0 and day 120 ([5]; intact rats, DHT 1 mg/day sc): prevented the age related increase in BMD

CCC(=O)O[C@H]1CC[C@H]2[C@@H]3CCC4=CC(=O)CC[C@]4(C)[C@H]3CC[C@]12C [testosterone propionate, reference compound]
transcription of MHC type IIb, % of untreated control [6]: 133%
